In one data set the test system is SCC25. The experiment in a line: Efficacy against head and neck tumour cell line SCC25. In kind it is cell-based. Conditions: substance alone, treatment period of 72 hours (FIG. 1). The text has this:
(§1) The biological activity of 7β-hydroxycholesterol and caroverin alone and also combined with each other was investigated. The efficacy was checked using the head and neck tumour cell lines SCC9 and SCC25.

The subject of the next data set is SCC9. The experiment in a line: Efficacy against head and neck tumour cell line SCC9. In kind it is cell-based. The conditions noted are these: substance alone, treatment period of 72 hours (FIG. 1).
Source text: as §1

The test system of data set [1] is head and neck tumour cell lines SCC9 and SCC25. Put plainly: Efficacy on tumour cells, cell line not given (cisplatin combinations, best concentration, proliferation). Conditions: combined with cisplatin (FIG. 2, FIG. 5); 7β-hydroxycholesterol in small doses. In kind it is cell-based.
Source text: as §1

The subject of another data set is healthy cells. The conditions noted are these: does not attack healthy cells; cited from earlier work.

Here are results for two compounds from patent US20080200424A1, “Preparation for Treating Cancer” (priority 2004, published 2008).

In the case of `CC(C)CCC[C@@H](C)[C@H]1CC[C@H]2[C@@H]3[C@@H](O)C=C4C[C@@H](O)CC[C@]4(C)[C@H]3CC[C@]12C` [7β-hydroxycholesterol], the “efficacy against cell line” value in the data set with SCC25 and in the data set with SCC9 was “effective” each time. Moreover, the “synergistic effect combined with cisplatin” value in data set [1] was “synergistic effect”. Moreover, the toxicity entry in the data set with healthy cells is “completely non-toxic”.

In the case of `CCN(CC)CCn1c(=O)c(Cc2ccc(OC)cc2)nc2ccccc21` [caroverin, 1-diethylaminoethyl-3-(p-methoxybenzyl)-1,2-dihydro-quinoxalin-2-one, reference compound], the “synergistic effect combined with cisplatin” value in data set [1] was “could not be proved”.
